Holding throughout (assay type): in vivo, mouse
One assay deals with db/db mice. The assay is described as follows: Fasting serum insulin levels (ELISA) in db/db mice. Conditions: FTY720-treated vs untreated, after overnight fasting. The source says:
FIG. 4. Fasting serum insulin levels of the db/db mice with (+FTY720) or without FTY720 (−FTY720) treatment (*p<0.01).
After overnight fasting, blood samples ([…]) were collected in a heparinized microhematocrit tube for the determination of insulin concentration using a Ultra Sensitive Mouse Insulin ELISA Kit (Crystal Chem Inc., Downers Grove, Ill.) (30).

The test system of the next assay is pancreatic islets. Kind of assay: Islet morphology (HE and insulin immunostaining) and islet area quantification in pancreas. From the text: FIG. 7. Hematoxylin and eosin (HE) staining of pancreas from the FTY720-untreated and the treated mice. After 6 and 9 weeks of treatment, pancreases were removed from the db/db mice and embedded in paraffin. Paraffin sections (10 μm thick) were stained with HE and analyzed with a microscope (Scale bar, 50 μm).
FIG. 8. Insulin immunostaining (green fluorescence) of the pancreatic islets. After 6 and 9 weeks treatment of FTY720, pancreases were removed from the db/db mice and embedded in paraffin. Paraffin sections (10 μm thick) were immunostained fluorescently for insulin (green color) (Scale bar 50 μm).
FIG. 9. Stereological quantification of the islet areas in the FTY720-untreated and the FTY720-treated db/db mice. […]
To assess islet area in pancreas after 6 weeks of treatment with FTY720, six consecutive paraffin sections (10 μm) from a pancreas (10 pancreases for the control and 9 pancreases for the FTY720-treated group) were used. All islet images on a whole section were taken by a Axioplan 2 microscope at X10 magnification, each islet area was measured by the Java-based image-processing program ImageJ (National Institutes of Health, Bethesda, Md.), and the sum of all islet areas from a section was considered to be the islet area per pancreas.

The subject of another assay is Bcl-xL. The assay is described as follows: Bcl-xL mRNA levels in islets of db/db mice. The following applies: islets from FTY720-treated db/db mice vs untreated. The procedure: FIG. 10B. Levels of Bcl-xL mRNA levels of the db/db mice with (+FTY720) or without FTY720 (−FTY720) treatment. *p=0.002
Islets were isolated from pancreases removed from the 13-week-old untreated and FTY720-treated db/db mice by Liberase (Roche Diagnostics) digestion, followed by discontinuous Ficoll gradient separation and manual stereomicroscopic selection to exclude contaminating tissues (30). Isolated islets (or INS-1 cells) were cultured in the medium (composed of RPMI 1640 medium supplemented with 10% fetal bovine serum, 2 mM L-glutamine, 1% sodium pyruvate, 50 μM β-mercaptoethanol, 100 units/ml of penicillin, and 100 μg/ml of streptomycin). For treatment of INS-1 cells, the cells were plated in RPMI medium overnight and changed to Hanks' balanced salt solution containing 2 mM glucose and 0.5% FBS overnight. Then the cells were treated with various conditions in the same medium for 24 hours.
To determine the mechanism of action (MOA) behind the increase in beta-cell mass observed in the treated mice, beta-cell survival was examined.

In a further assay the test system is S1P3. The assay is described as follows: S1P receptor expression in islets from db/db mice: S1P3. Conditions: after FTY720 treatment of db/db mice. The source says: (§1) FIG. 15. Expression of 4 FTY720-bound S1P receptors in the islets isolated from the db/db mice.
(§2) FTY720 is phosphorylated in vivo to form FTY720-P that binds S1P1, S1P3, S1P4, and S1P5 but not S1P2 (25). We determined the expression of these receptors in the islets isolated from the untreated and FTY720-treated db/db mice.

In the next assay the test system is S1P4. Kind of assay: S1P receptor expression in islets from db/db mice: S1P4. Conditions: after FTY720 treatment of db/db mice.
Excerpt: as §1, §2

Structures are written as SMILES.

`CCCCCCCCc1ccc(CCC(N)(CO)CO)cc1` [FTY720, 2-amino-2-[2-(4-octylphenyl)ethyl]propane-1,3-diol]: in the assay on db/db mice, the “fasting serum insulin levels” value is “significantly elevated”. Moreover, in the assay with pancreatic islets (db/db mice after 6 weeks of treatment, vs untreated group), the “pancreatic islet size (stereological quantification of islet areas)” value is listed as “significantly larger”. Moreover, the islet morphology entry in the assay with pancreatic islets (db/db mice, H&E and insulin immunostaining, after 6 and 9 weeks of treatment) was “normal islet morphology”. In addition, the “Bcl-xL mRNA levels” value in the assay on Bcl-xL is “significantly increased”. Besides, the “S1P3 expression in islets” value in the assay on S1P3 was “significantly elevated”. Moreover, the “S1P4 expression in islets” value in the assay with S1P4 is given as “significantly elevated”.

The record behind these values is US8653026B2, “Treatment of type 2 diabetes with FTY720” (Diapin Therapeutics LLC, priority 2011, dated 2014).
